According to patent US20070178147A1, “Liposomal compositions” (priority 2005, published 2007):
Converted amounts (≈) assume the structure as drawn.

How the values were obtained:
[1] = Solubility of Compound 1 in pharmaceutical solvents at 25° C.; assay type: physicochemical
Description: Compound 1 is a nonpeptide vasopressin receptor antagonist and is insoluble in aqueous solutions throughout the physiological pH range (1.2 to 7.5).

[2] = Precipitation of Compound 1 from cosolvent systems upon addition of water; assay type: physicochemical; details: cosolvent systems of PEG 400 or 300, Benzyl Alcohol, Ethanol and low amounts of bile salts; water at 30% levels in final mixture
Description: In additional combinations as cosolvent systems, of PEG 400 or 300, Benzyl Alcohol, Ethanol and low amounts of bile salts (e.g. Sodium Deoxytauro Cholate), Compound 1 precipitated upon an addition of water at 30% levels in the final aqueous-organic mixture.

Question: With `Cc1ccc(F)cc1C(=O)Nc1ccc(C(=O)N2Cc3cccn3Cc3ccccc32)c(Cl)c1` [Compound 1, 5-fluoro-2-methyl-N-[4-(5H-pyrrolo[2,1-c][1,4]benzodiazepin-10(11H)-ylcarbonyl)-3-chlorophenyl]benzamide] as the compound, how does the solubility ([1]; aqueous buffer, 10 mM Phosphate buffer (pH 7.4), 25° C.) read?
Answer: < 0.001 µg/mL

Question: What about the solubility ([1]; aqueous with cosolvent or surfactant or cyclodextrin, Aqueous solution of Poloxamer 188 (10, 20 and 30%), 25° C.) of the same compound?
Answer: < 0.001 µg/mL

Question: What about the solubility ([1]; aqueous with cosolvent or surfactant or cyclodextrin, Cremophor EL, 25° C.) of the same compound?
Answer: 5100 µg/mL (≈ 10800 µM)

Question: And the solubility ([1]; aqueous with cosolvent or surfactant or cyclodextrin, Gelucire 48109, 25° C.)?
Answer: 2260 µg/mL (≈ 4770 µM)

Question: And the solubility ([1]; aqueous with cosolvent or surfactant or cyclodextrin, Labrasol, 25° C.)?
Answer: 7500 µg/mL (≈ 15800 µM)

Question: What about the solubility ([1]; aqueous with cosolvent or surfactant or cyclodextrin, PEG 300/Alcohol/Water (40:30:30), 25° C.) of the same compound?
Answer: 280 µg/mL (≈ 591 µM)

Question: What about the solubility ([1]; aqueous with cosolvent or surfactant or cyclodextrin, Sodium Lauryl sulfate, 25° C.) of the same compound?
Answer: 20 µg/mL (≈ 42.2 µM)

Question: What about the solubility ([1]; fassgf or other biorelevant, SIF without enzyme, 25° C.) of the same compound?
Answer: < 0.001 µg/mL

Question: What about the solubility ([1]; oil or lipid, Ethyl oleate, 25° C.) of the same compound?
Answer: 200 µg/mL (≈ 422 µM)

Question: What about the solubility ([1]; oil or lipid, Miglyol 812, 25° C.) of the same compound?
Answer: 290 µg/mL (≈ 612 µM)

Question: What about the solubility ([1]; oil or lipid, Neobee M5, 25° C.) of the same compound?
Answer: 520 µg/mL (≈ 1100 µM)

Question: And the solubility ([1]; oil or lipid, Oleic acid, 25° C.)?
Answer: 40 µg/mL (≈ 84.4 µM)

Question: And the solubility ([1]; oil or lipid, Olive oil, 25° C.)?
Answer: 30 µg/mL (≈ 63.3 µM)

Question: What about the solubility ([1]; oil or lipid, Propylene glycol Laurate, 25° C.) of the same compound?
Answer: 680 µg/mL (≈ 1430 µM)

Question: And the solubility ([1]; oil or lipid, Safflower oil, 25° C.)?
Answer: < 0.001 µg/mL

Question: And the solubility ([1]; oil or lipid, Soybean oil, 25° C.)?
Answer: < 0.001 µg/mL

Question: What about the solubility ([1]; organic solvent or mixture, Benzyl Alcohol, 25° C.) of the same compound?
Answer: 21000 µg/mL (≈ 44400 µM)

Question: And the solubility ([1]; organic solvent or mixture, Benzyl Benzoate, 25° C.)?
Answer: 3410 µg/mL (≈ 7200 µM)

Question: What about the solubility ([1]; organic solvent or mixture, Ethanol, 25° C.) of the same compound?
Answer: 1890 µg/mL (≈ 3990 µM)

Question: What about the solubility ([1]; organic solvent or mixture, PEG 300, 25° C.) of the same compound?
Answer: 14900 µg/mL (≈ 31400 µM)

Question: What about the solubility ([1]; organic solvent or mixture, PEG 300/Alcohol (50:50), 25° C.) of the same compound?
Answer: 8750 µg/mL (≈ 18500 µM)

Question: And the solubility ([1]; organic solvent or mixture, PEG 400, 25° C.)?
Answer: 26300 µg/mL (≈ 55500 µM)

Question: What about the solubility ([1]; organic solvent or mixture, PEG 400/Benzyl Alcohol (80:20), 25° C.) of the same compound?
Answer: 14600 µg/mL (≈ 30800 µM)

Question: What about the solubility ([1]; organic solvent or mixture, Triacetin, 25° C.) of the same compound?
Answer: 2700 µg/mL (≈ 5700 µM)

Question: What about the “Solubility in partially aqueous solvents” value ([1]; partially aqueous solvents of pharmaceutically acceptable hydrophilic and lipophilic solvents) of the same compound?
Answer: limited solubility

Question: What about the solubility ([1]; plasma or biological fluid, Human Serum Albumin, 25° C.) of the same compound?
Answer: 16 µg/mL (≈ 33.8 µM)

Question: And the solubility ([1]; propylene glycol (printed: Propylyne glycol), organic solvent or mixture, Propylyne glycol, 25° C.)?
Answer: 600 µg/mL (≈ 1270 µM)

Question: What about the solubility ([1]; simulated gastric fluid, SGF without enzyme, 25° C.) of the same compound?
Answer: < 0.001 µg/mL

Question: And the “Solubility in aqueous solutions” value ([1]; throughout the physiological pH range (1.2 to 7.5))?
Answer: insoluble

Question: And the “Behaviour upon addition of water” value [2]?
Answer: precipitated
